Among the data in patent US11623919B2, “Heterocyclic P2X7 antagonists” (AXXAM S.P.A., priority 2017, dated 2023) are IC50 values, retold here.

What all share (test): Screen Quest Fluo-8 No Wash Calcium Assay (Bz-ATP evoked Ca2+ influx, FLIPR)
Type in all cases: cell-based

The target in experiment [1] is T1, P2X7 receptor (Homo sapiens, UniProt Q99572).
T1 sequence (Q99572 1-595): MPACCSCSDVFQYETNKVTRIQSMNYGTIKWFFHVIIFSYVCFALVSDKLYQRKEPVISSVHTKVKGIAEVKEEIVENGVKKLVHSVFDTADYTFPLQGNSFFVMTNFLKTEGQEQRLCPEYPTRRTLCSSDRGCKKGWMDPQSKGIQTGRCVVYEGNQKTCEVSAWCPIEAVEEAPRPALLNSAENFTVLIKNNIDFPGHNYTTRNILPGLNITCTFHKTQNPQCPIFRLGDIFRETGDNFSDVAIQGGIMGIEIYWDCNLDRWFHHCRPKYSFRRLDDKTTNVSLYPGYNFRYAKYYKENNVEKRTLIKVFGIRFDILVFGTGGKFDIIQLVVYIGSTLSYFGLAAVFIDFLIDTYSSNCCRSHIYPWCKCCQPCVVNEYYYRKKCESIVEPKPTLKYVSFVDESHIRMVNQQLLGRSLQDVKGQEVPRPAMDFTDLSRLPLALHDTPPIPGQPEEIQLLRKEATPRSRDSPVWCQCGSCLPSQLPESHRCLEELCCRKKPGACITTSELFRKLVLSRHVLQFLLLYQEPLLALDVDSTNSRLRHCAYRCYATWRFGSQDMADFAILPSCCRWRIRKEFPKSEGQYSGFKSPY
On the set-up: hP2X7 (IC50; nM); other: hP2X7; HEK-293 cells stably transfected with P2X7 receptor, Bz-ATP at EC80, Fluo-8 NW; potency. Particulars: hP2X7; HEK-293 cells stably transfected with P2X7 receptor, Bz-ATP at EC80, Fluo-8 NW; potency ranges A-D. On the procedure:
(§1) Extracellular binding of Bz-ATP to P2X7 receptor opens the channel and allows Ca2+ influx into the cells. […] Once inside the cell, the lipophilic blocking groups of Fluo-8 are cleaved by non-specific cell esterases, resulting in a negatively-charged fluorescent dye that stays inside cells. Its fluorescence increases upon binding to calcium.
(§2) HEK-293 cells stably transfected with P2X7 receptor were seeded overnight in growth medium at 10,000 to 20,000 cell/well in 384-well plate. 24 hours later, the medium was removed and the cells were pre-loaded at RT for 1 hour with 20 μL/w of Fluo-8 NW. Then 10 μL/w of tests compounds and reference antagonist A438079 at 3×-concentration were injected with the […] and the kinetic response over a period of five minutes was monitored. A second injection of 15 μL/w of 3× reference activator (Bz-ATP at EC80) was performed with the […] and the signal of the emitted fluorescence was recorded for additional three minutes. All the experiment was carried out in a Low Divalent Cation Assay Buffer (0.3 mM Ca^2+ and 0 mM Mg^2+). The effect of the test compounds was measured as percent inhibition vs the reference antagonist and IC50 values were calculated accordingly.

Experiment [2] has as its target T2, P2X7 receptor (Rattus norvegicus, UniProt Q64663).
T2 construct: rP2X7 (IC50; nM); other: rP2X7; HEK-293 cells stably transfected with P2X7 receptor, Bz-ATP at EC80, Fluo-8 NW; potency
T2 sequence (Q64663 1-595): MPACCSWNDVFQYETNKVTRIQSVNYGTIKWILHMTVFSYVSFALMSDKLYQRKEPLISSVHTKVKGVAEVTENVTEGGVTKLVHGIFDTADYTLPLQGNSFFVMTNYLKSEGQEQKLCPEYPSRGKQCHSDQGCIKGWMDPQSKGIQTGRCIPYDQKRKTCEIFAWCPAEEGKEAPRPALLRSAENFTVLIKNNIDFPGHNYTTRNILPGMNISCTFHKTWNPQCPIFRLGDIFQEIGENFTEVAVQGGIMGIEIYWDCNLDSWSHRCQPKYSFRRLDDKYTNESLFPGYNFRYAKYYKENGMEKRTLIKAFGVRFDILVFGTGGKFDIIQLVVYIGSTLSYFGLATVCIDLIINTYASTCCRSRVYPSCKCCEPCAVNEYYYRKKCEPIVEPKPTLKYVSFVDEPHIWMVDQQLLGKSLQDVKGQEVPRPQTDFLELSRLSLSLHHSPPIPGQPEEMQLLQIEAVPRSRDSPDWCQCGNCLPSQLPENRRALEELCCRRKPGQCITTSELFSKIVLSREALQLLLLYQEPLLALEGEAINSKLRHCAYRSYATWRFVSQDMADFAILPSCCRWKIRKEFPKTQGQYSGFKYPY
Conditions: rP2X7; HEK-293 cells stably transfected with P2X7 receptor, Bz-ATP at EC80, Fluo-8 NW; potency ranges A-D. The method, then:
as §1, §2

The target in experiment [3] is T3, P2X7 receptor (Mus musculus, UniProt Q9Z1M0).
T3 construct: mP2X7 (IC50; nM); other: mP2X7; HEK-293 cells stably transfected with P2X7 receptor, Bz-ATP at EC80, Fluo-8 NW; potency
T3 sequence (Q9Z1M0 1-595): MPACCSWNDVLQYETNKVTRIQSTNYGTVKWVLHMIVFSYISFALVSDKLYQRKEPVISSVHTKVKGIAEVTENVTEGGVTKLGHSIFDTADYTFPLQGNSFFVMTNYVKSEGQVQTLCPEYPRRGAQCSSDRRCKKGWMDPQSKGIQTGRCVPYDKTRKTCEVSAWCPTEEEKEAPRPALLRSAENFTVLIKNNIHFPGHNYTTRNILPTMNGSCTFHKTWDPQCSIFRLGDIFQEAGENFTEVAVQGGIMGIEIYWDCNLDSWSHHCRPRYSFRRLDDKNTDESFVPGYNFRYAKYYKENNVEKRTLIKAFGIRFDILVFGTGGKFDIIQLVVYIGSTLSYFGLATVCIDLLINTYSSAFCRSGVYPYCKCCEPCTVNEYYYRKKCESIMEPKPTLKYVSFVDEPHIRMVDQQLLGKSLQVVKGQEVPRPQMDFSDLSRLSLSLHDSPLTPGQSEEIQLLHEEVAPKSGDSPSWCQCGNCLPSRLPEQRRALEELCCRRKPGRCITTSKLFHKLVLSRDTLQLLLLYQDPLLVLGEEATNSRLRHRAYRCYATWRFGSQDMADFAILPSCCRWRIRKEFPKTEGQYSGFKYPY
Conditions: mP2X7; HEK-293 cells stably transfected with P2X7 receptor, Bz-ATP at EC80, Fluo-8 NW; potency ranges A-D. The method, then: as §1, §2

A value given as a limit tells only on which side of the number the result lay.

For the compound `Cc1nn(C)c(C)c1Cc1noc(=O)n1Cc1c(F)cccc1Cl` [Example 213, 4-[(2-chloro-6-fluorophenyl)methyl]-3-[(trimethyl-1H-pyrazol-4-yl)methyl]-4,5-dihydro-1,2,4-oxadiazol-5-one], the IC50 (commonly the concentration that inhibits the measured activity by half) at P2X7 receptor [1] is 1000 to 10000 nM; on P2X7 receptor [2] it was above 10000 nM; on P2X7 receptor [3], above 10000 nM.

For `O=c1onc(CN2CCC(F)(F)CC2)n1Cc1c(F)cccc1Cl` [Example 220, 4-[(2-chloro-6-fluorophenyl)methyl]-3-[(4,4-difluoropiperidin-1-yl)methyl]-4,5-dihydro-1,2,4-oxadiazol-5-one], the IC50 at P2X7 receptor [1] is below 200 nM; at P2X7 receptor [2], below 200 nM; on P2X7 receptor [3] it was 200 to 1000 nM.

In the case of `O=c1onc(CCc2c(F)cccc2Cl)n1CC1CCC(F)(F)CC1` [Example 147, 3-[2-(2-chloro-6-fluorophenyl)ethyl]-4-[(4,4-difluorocyclohexyl)methyl]-1,2,4-oxadiazol-5(4H)-one], the IC50 at P2X7 receptor [1], at P2X7 receptor [2] and on P2X7 receptor [3] was 200 to 1000 nM each time.

Regarding `O=c1onc(CCc2c(F)cccc2Cl)n1Cc1ccc(F)cc1` [Example 145, 3-[2-(2-chloro-6-fluorophenyl)ethyl]-4-(4-fluorobenzyl)-1,2,4-oxadiazol-5(4H)-one], the IC50 on P2X7 receptor [1], on P2X7 receptor [2] and at P2X7 receptor [3] was 200 to 1000 nM in each case.

For the compound `O=c1onc(CN2CCOc3ccccc32)n1Cc1c(F)cccc1Cl` [Example 229, 4-[(2-chloro-6-fluorophenyl)methyl]-3-(3,4-dihydro-2H-1,4-benzoxazin-4-ylmethyl)-4,5-dihydro-1,2,4-oxadiazol-5-one], the IC50 on P2X7 receptor [1], on P2X7 receptor [2] and at P2X7 receptor [3] was 1000 to 10000 nM each time.

In the case of `O=c1onc(Cc2ccc(F)cc2)n1Cc1cc(F)ccc1Br` [Example 5, 4-[(2-bromo-5-fluorophenyl)methyl]-3-[(4-fluorophenyl)methyl]-4,5-dihydro-1,2,4-oxadiazol-5-one], the IC50 on P2X7 receptor [1] is 1000 to 10000 nM; on P2X7 receptor [2], above 10000 nM; at P2X7 receptor [3], above 10000 nM.

As to `O=c1onc(Cc2ccc(Cl)cc2Cl)n1CC1CCC(F)(F)CC1` [Example 159, 3-[(2,4-dichlorophenyl)methyl]-4-[(4,4-difluorocyclohexyl)methyl]-4,5-dihydro-1,2,4-oxadiazol-5-one], the values for the IC50 at P2X7 receptor [1], at P2X7 receptor [2] and at P2X7 receptor [3] were below 200 nM, below 200 nM and 200 to 1000 nM, respectively.

In the case of `Cc1ncccc1Cc1noc(=O)n1Cc1c(F)cccc1Cl` [Example 217, 4-[(2-chloro-6-fluorophenyl)methyl]-3-[(2-methylpyridin-3-yl)methyl]-4,5-dihydro-1,2,4-oxadiazol-5-one], the IC50 on P2X7 receptor [1], on P2X7 receptor [2] and at P2X7 receptor [3] was above 10000 nM throughout.

Take `O=c1onc(Cc2c(F)cccc2Cl)n1CC1CCOCC1` [Example 93, 3-[(2-chloro-6-fluorophenyl)methyl]-4-(oxan-4-ylmethyl)-4,5-dihydro-1,2,4-oxadiazol-5-one]: the IC50 at P2X7 receptor [1] was in the range of 1000 to 10000 nM; at P2X7 receptor [2], 200 to 1000 nM; on P2X7 receptor [3], 1000 to 10000 nM.

For `O=c1onc(CC2CCC(F)(F)CC2)n1Cc1ncc(F)cn1` [Example 190, 3-[(4,4-difluorocyclohexyl)methyl]-4-[(5-fluoropyrimidin-2-yl)methyl]-4,5-dihydro-1,2,4-oxadiazol-5-one], the IC50 at P2X7 receptor [1], at P2X7 receptor [2] and on P2X7 receptor [3] was above 10000 nM in each case.

Take `O=c1onc(Cc2ccccc2C(F)(F)F)n1Cc1ccc(F)cc1` [Example 105, 4-[(4-fluorophenyl)methyl]-3-{[2-(trifluoromethyl)phenyl]methyl}-4,5-dihydro-1,2,4-oxadiazol-5-one]: the IC50 on P2X7 receptor [1], on P2X7 receptor [2] and at P2X7 receptor [3] was 1000 to 10000 nM throughout.

In the case of `Cc1nc(C(F)(F)F)ccc1Cn1c(Cc2c(F)cccc2Cl)noc1=O` [Example 64, 3-[(2-chloro-6-fluorophenyl)methyl]-4-{[2-methyl-6-(trifluoromethyl)pyridin-3-yl]methyl}-4,5-dihydro-1,2,4-oxadiazol-5-one], the IC50 is 1000 to 10000 nM at P2X7 receptor [1], above 10000 nM at P2X7 receptor [2] and above 10000 nM at P2X7 receptor [3].

Take `O=c1onc(Cc2c(F)cccc2Cl)n1Cc1cccc2ncccc12` [Example 30, 3-[(2-chloro-6-fluorophenyl)methyl]-4-(quinolin-5-ylmethyl)-4,5-dihydro-1,2,4-oxadiazol-5-one]: the IC50 at P2X7 receptor [1], on P2X7 receptor [2] and on P2X7 receptor [3] was 1000 to 10000 nM throughout.

With `O=c1onc(Cc2ccccn2)n1CC1CCCCC1` [Example 110, 4-(cyclohexylmethyl)-3-(pyridin-2-ylmethyl)-4,5-dihydro-1,2,4-oxadiazol-5-one], the IC50 at P2X7 receptor [1] is above 10000 nM; on P2X7 receptor [2], 1000 to 10000 nM; on P2X7 receptor [3] it was above 10000 nM.

As for `CC(C)Cn1c(Cc2c(F)cccc2Cl)noc1=O` [Example 178, 3-[(2-chloro-6-fluorophenyl)methyl]-4-(2-methylpropyl)-4,5-dihydro-1,2,4-oxadiazol-5-one], the IC50 at P2X7 receptor [1] is 1000 to 10000 nM; on P2X7 receptor [2], above 10000 nM; at P2X7 receptor [3], above 10000 nM.

With `CC(c1c(F)cccc1Cl)c1noc(=O)n1Cc1ccc(F)cc1` (stereo not drawn) [Example 78, 3-[1-(2-chloro-6-fluorophenyl)ethyl]-4-[(4-fluorophenyl)methyl]-4,5-dihydro-1,2,4-oxadiazol-5-one], the IC50 at P2X7 receptor [1], at P2X7 receptor [2] and at P2X7 receptor [3] was above 10000 nM each time.

With `O=c1onc(Cc2c(F)cccc2Cl)n1Cc1ccncc1` [Example 43, 3-[(2-chloro-6-fluorophenyl)methyl]-4-(pyridin-4-ylmethyl)-4,5-dihydro-1,2,4-oxadiazol-5-one], the IC50 at P2X7 receptor [1], at P2X7 receptor [2] and on P2X7 receptor [3] was above 10000 nM each time.
